According to patent EP4725941A1, “ARYLAMIDE DERIVATIVE HAVING ANTITUMOR ACTIVITY” (priority 2020, dated 2021):
Where two headings read alike, the source gives them in different places.

What was measured:
[1] = biological target: T1, MEK1 (Homo sapiens, UniProt Q02750); assay: MEK1-inhibiting activity, fluorescent polarization method (CRAF/MEK1/ERK2 cascade, IMAP); format: biochemical
T1 construct: purchased Thermo Fisher Scientific Inc. (MEK1, CRAF); Carna Biosciences, Inc. (ERK2)
Protocol: The MEK1-inhibiting activity of the compounds listed in Table 3 below were evaluated by the fluorescent polarization method as described below.

[2] = biological target: T2, BRAF (Homo sapiens, UniProt P15056); assay: BRAF-inhibiting activity, time-resolved fluorescence-fluorescence resonance energy transfer assay; format: biochemical
T2 construct: purchased Eurofins Genomics KK; (BRAF); Thermo Fisher Scientific Inc. (MEK1)
Protocol: The BRAF-inhibiting activity of the compounds listed in Table 3 below was evaluated by the time-resolved fluorescence-fluorescence resonance energy transfer assay as described below.

[3] = tested on: A549; assay: Cell proliferation-inhibiting activity (ATP in viable cells, CellTiter-Glo), A549; format: cell-based, human; details: A549, 96 h; human lung cancer cells, 4 days; read-out: A549 IC50
[4] = tested on: Calu-6; assay: Cell proliferation-inhibiting activity (ATP in viable cells, CellTiter-Glo), Calu-6; format: cell-based, human; details: Calu-6, 96 h; human lung cancer cells, 4 days; read-out: Calu-6 IC50
[5] = tested on: NCI-H2122; assay: Cell proliferation-inhibiting activity (ATP in viable cells, CellTiter-Glo), NCI-H2122; format: cell-based, human; details: NCI-H2122, 96 h; human lung cancer cells, 4 days; read-out: NCI-H2122 IC50
[6] = Human liver microsome stability; format: in vitro ADME; details: human liver microsomes, pH 7.4

T2 sequence (P15056 417-766 limits assumed): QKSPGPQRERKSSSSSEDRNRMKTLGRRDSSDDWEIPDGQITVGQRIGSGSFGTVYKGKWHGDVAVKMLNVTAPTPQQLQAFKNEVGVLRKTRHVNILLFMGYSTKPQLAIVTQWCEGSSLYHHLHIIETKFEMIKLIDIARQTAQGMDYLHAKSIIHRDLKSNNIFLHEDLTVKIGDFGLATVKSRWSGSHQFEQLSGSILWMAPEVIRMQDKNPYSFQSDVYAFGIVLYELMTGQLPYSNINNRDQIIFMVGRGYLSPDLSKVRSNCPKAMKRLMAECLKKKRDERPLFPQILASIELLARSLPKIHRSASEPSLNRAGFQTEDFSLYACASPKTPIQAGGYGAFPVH
T1 sequence (Q02750 whole entry): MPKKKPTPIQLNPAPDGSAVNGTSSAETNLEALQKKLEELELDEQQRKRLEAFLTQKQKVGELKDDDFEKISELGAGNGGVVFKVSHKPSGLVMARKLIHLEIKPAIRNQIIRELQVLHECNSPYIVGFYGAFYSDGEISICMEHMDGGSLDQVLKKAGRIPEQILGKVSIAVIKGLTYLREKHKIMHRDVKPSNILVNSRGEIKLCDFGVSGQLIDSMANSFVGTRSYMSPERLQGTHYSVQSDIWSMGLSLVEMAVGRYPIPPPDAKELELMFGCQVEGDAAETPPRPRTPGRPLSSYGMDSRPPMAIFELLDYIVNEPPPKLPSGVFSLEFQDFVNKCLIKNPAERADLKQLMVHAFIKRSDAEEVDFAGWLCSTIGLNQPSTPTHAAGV

SMILES	IC50 ([1]; Table 3, read-out: MEK1 IC50) [nM]	IC50 ([2]; read-out: BRAF IC50; Table 3) [nM]	IC50 [3] [nM]	IC50 [4] [nM]	IC50 [5] [nM]	microsomal CLint at 0.99 µM [6] [µL/min/mg]	IC50 [1] [nM]	IC50 ([2]; Table 3; read-out: BRAF IC50) [nM]
CNS(=O)(=O)Nc1nccc(Oc2cc(C(N)=O)c(Nc3ccc(I)cc3F)c(F)c2F)c1F [Compound H-4, 3,4-difluoro-2-(2-fluoro-4-iodoanilino)-5-[3-fluoro-2-(methylsulfamoylamino)pyridin-4-yl]oxybenzamide]	8	12	9	6	1	11	–	–
CNS(=O)(=O)Nc1nccc(Cc2cc(C(=O)NC3CC3)c(Nc3ccc(I)cc3F)n(C)c2=O)c1F [Compound J-5, N-cyclopropyl-2-(2-fluoro-4-iodoanilino)-5-[[3-fluoro-2-(methylsulfamoylamino)pyridin-4-yl]methyl]-1-methyl-6-oxopyridine-3-carbo xamide]	117	8	7	29	4	20	–	–
CCS(=O)(=O)Nc1cccc(Cc2cc(C(N)=O)c(Nc3ccc(I)cc3Cl)c(F)c2F)c1F [Compound E-11, 2-(2-Chloro-4-iodoanilino)-5-[[3-(ethylsulfonylamino)-2-fluorophenyl]methyl]-3,4-difluorobenzamide]	454	5	6	73	6	11	–	–
CC(C)(C)NS(=O)(=O)Nc1nccc(Cc2cc(C(N)=O)c(Nc3ccc(I)cc3F)c(F)c2F)c1F [Compound A-37, 5-[[2-(tert-Butylsulfamoylamino)-3-fluoropyridin-4-yl]methyl]-3,4-difl uoro-2-(2-fluoro-4-iodoanilino)benzamide]	50	7	21	26	7	10	–	–
O=C(NC1CC1)c1cc(Cc2ccnc(NS(=O)(=O)NC3CC3)c2F)c(F)c(F)c1Nc1ccc(I)cc1Cl [Compound B-12, 2-(2-Chloro-4-iodoanilino)-N-cyclopropyl-5-[[2-(cyclopropylsulfamoylamino)-3-fluoropyridin-4-yl]methyl]-3,4-difluorobenzamide]	61	8	14	30	8	39	–	–
CCS(=O)(=O)Nc1cccc(Cc2cc(C(=O)NOC(C)(C)C)c(Nc3ccc(I)cc3Cl)c(F)c2F)c1F [Compound E-10, 2-(2-Chloro-4-iodoanilino)-5-[[3-(ethylsulfonylamino)-2-fluorophenyl]methyl]-3.4-difluoro-N-[(2-methylpropan-2-yl)oxy]benzamide]	84	23	4	27	3	51	–	–
NC(=O)c1cc(Cc2cccc(NS(=O)(=O)C3CCOCC3)c2F)c(F)c(F)c1Nc1ccc(I)cc1F [Compound E-23, 3,4-difluoro-2-(2-fluoro-4-iodoanilino)-5-[[2-fluoro-3-(oxan-4-ylsulfonylamino)phenyl]methyl]benzamide]	61	6	31	47	4	98	–	–
CNS(=O)(=O)Nc1nccc(Cc2cc(C(=O)NC3CC3(F)F)c(Nc3ccc(I)cc3F)c(F)c2F)c1F (racemic) [Compound B-6, (+/-)-N-(2,2-Difluorocyclopropyl)-3,4-difluoro-2-(2-fluoro-4-iodoanilino)-5-[[3-fluoro-2-(methylsulfamoylamino)pyridin-4-yl]methyl]benzamide (racemate)]	–	–	2	16	1	20	97	15
CC(C)S(=O)(=O)Nc1cccc(Oc2cncc(Nc3ccc(I)cc3F)c2C(N)=O)c1 [Ref-3, 3-(2-Fluoro-4-iodoanilino)-5-[3-(propan-2-ylsulfonylamino)phenoxy]py ridine-4-carboxamide, reference compound]	5	12	2	10	1	11	–	–
COCC(C)(C)NS(=O)(=O)Nc1nccc(Cc2cc(C(N)=O)c(Nc3ccc(I)cc3F)c(F)c2F)c1F [Compound A-24, 3,4-Difluoro-2-(2-fluoro-4-iodoanilino)-5-[[3-fluoro-2-[(1-methoxy-2-methylpropan-2-yl)sulfamoylamino]pyridin-4-yl]methyl]benzamide]	129	3	11	51	4	48	–	–
CNS(=O)(=O)Nc1nccc(Cc2cc(C(=O)NOCCOC)c(Nc3ccc(I)cc3F)c(F)c2F)c1F [Compound B-2, 3,4-Difluoro-2-(2-fluoro-4-iodoanilino)-5-[[3-fluoro-2-(methylsulfamoylamino)pyridin-4-yl]methyl]-N-(2-methoxyethoxy)benzamide]	4	3	1	7	1	53	–	–
CNS(=O)(=O)Nc1nccc(Cc2cc(C(=O)NOC)c(Nc3ccc(Br)cc3F)c(F)c2F)c1F [Compound G-3, 2-(4-Bromo-2-fluoroanilino)-3,4-difluoro-5-[[3-fluoro-2-(methylsulfamoylamino)pyridin-4-yl]methyl]-N-methoxybenzamide]	15	5	7	47	2	29	–	–
Cn1c(Nc2ccc(I)cc2F)c(C(=O)NOC(C)(C)C)cc(Cc2ccnc(NS(=O)(=O)NC3CC3)c2F)c1=O [Compound J-11, 5-[[2-(Cyclopropylsulfamoylamino)-3-fluoropyridin-4-yl]methyl]-2-(2-fluoro-4-iodoanilino)-1-methyl-N-[(2-methylpropan-2-yl)oxy]-6-oxopyr idine-3-carboxamide]	48	17	13	27	6	47	–	–
CC(C)(C)ONC(=O)c1cc(Cc2ccnc(NS(=O)(=O)NC3CC3)c2F)c(F)c(F)c1Nc1ccc(I)cc1Cl [Compound B-13, 2-(2-Chloro-4-iodoanilino)-5-[[2-(cyclopropylsulfamoylamino)-3-fluor opyridin-4-yl]methyl]-3,4-difluoro-N-[(2-methylpropan-2-yl)oxy]benzamide]	13	10	26	34	14	66	–	–
CNS(=O)(=O)Nc1cccc(Cc2cc(C(=O)NC3CC3)c(Nc3ccc(I)cc3F)c(F)c2F)c1 [Compound C-6, N-Cyclopropyl-3,4-difluoro-2-(2-fluoro-4-iodoanilino)-5-[[3-(methylsulfamoylamino)phenyl]methyl]benzamide]	268	9	6	31	4	74	–	–
CNS(=O)(=O)Nc1nccc(Cc2cc(C(=O)NOC)c(Nc3ccc(I)cc3F)n(C)c2=O)c1F [Compound J-8, 2-(2-fluoro-4-iodoanilino)-5-[[3-fluoro-2-(methylsulfamoylamino)pyridin-4-yl]methyl]-N-methoxy-1-methyl-6-oxopyridine-3-carboxamide]	15	2	24	77	5	3	–	–
CNS(=O)(=O)Nc1nccc(Cc2cc(C(=O)N[C@H]3C[C@H]3C)c(Nc3ccc(I)cc3F)c(F)c2F)c1F (racemic) [Compound B-4, 3,4-Difluoro-2-(2-fluoro-4-iodoanilino)-5-[[3-fluoro-2-(methylsulfamoylamino)pyridin-4-yl]methyl]-N-[(1S, 2R)-(+/-)-2-methylcyclopropyl]benzamide (racemate)]	–	–	2	6	1	28	19	5
CNS(=O)(=O)Nc1nccc(Cc2cc(C(=O)NOCCO)c(Nc3ccc(I)cc3F)c(F)c2F)c1F [Compound B-1, 3,4-difluoro-2-(2-fluoro-4-iodoanilino)-5-[[3-fluoro-2-(methylsulfamoylamino)pyridin-4-yl]methyl]-N-(2-hydroxyethoxy)benzamide]	2	5	6	11	2	15	–	–
NS(=O)(=O)Nc1nccc(Cc2cc(C(=O)NC3CC3)c(Nc3ccc(I)cc3F)c(F)c2F)c1F [Compound A-3, N-Cyclopropyl-3,4-difluoro-2-(2-fluoro-4-iodoanilino)-5-[[3-fluoro-2-(sulfamoylamino)pyridin-4-yl]methyl]benzamide]	31	5	25	28	13	10	–	–
CNS(=O)(=O)Nc1nccc(Cc2cc(C(N)=O)c(Nc3ccc(I)cc3F)cc2F)c1F [Compound I-1, 4-fluoro-2-(2-fluoro-4-iodoanilino)-5-[[3-fluoro-2-(methylsulfamoylamino)pyridin-4-yl]methyl]benzamide]	25	3	5	15	3	19	–	–
